Key:
[1] = tested on: rabbit serum obtained by immunizing a rabbit with the SARS-CoV strain Frankfurt 1; format: binding; design: Binding of a rabbit serum to linear peptides / Binding of a rabbit serum to looped peptides / Rabbit serum linear peptides / Rabbit serum looped peptides / Binding of a rabbit serum to linear peptides of protein N of SARS-CoV Urbani (Rabbit serum linear peptides) / Binding of a rabbit serum to looped/cyclic peptides of protein N of SARS-CoV Urbani (Rabbit serum looped peptides): unit not given here
[2] = tested on: control sera (pooled serum of ten healthy LUMC hospital workers; commercial negative donor pooled serum from the Dutch bloodbank); format: binding, human
[3] = tested on: antibodies in sera from SARS patients (sera 1a, 1b, 2, 6, 37, 62, London, SARS-yellow, SARS-green); format: binding, human

Sequence | Binding of a rabbit serum to linear peptides [1] | Binding of a rabbit serum to looped peptides [1] | Binding of Control Serum Blood-Bank to Looped peptides [2] | Binding of Control serum Blood-bank to linear peptides [2] | Binding of Control serum LUMC to linear peptides [2] | Binding of Control serum LUMC to looped peptides [2] | Binding of serum 1a to linear peptides of protein E of SARS-CoV Urbani [3] | Binding of serum 1a to looped/cyclic peptides of protein E of SARS-CoV Urbani [3] | Binding of serum 1b to linear peptides of protein E of SARS-CoV Urbani [3] | Binding of serum 1b to looped/cyclic peptides of protein E of SARS-CoV Urbani [3] | Binding of serum 2 to linear peptides of protein E of SARS-CoV Urbani [3] | Binding of serum 2 to looped/cyclic peptides of protein E of SARS-CoV Urbani [3] | Binding of serum 6 to linear peptides of protein E of SARS-CoV Urbani [3] | Binding of serum 6 to looped/cyclic peptides of protein E of SARS-CoV Urbani [3] | Binding of serum 37 to linear peptides of protein E of SARS-CoV Urbani [3] | Binding of serum 37 to looped/cyclic peptides of protein E of SARS-CoV Urbani [3] | Binding of serum 62 to linear peptides of protein E of SARS-CoV Urbani [3] | Binding of serum 62 to looped/cyclic peptides of protein E of SARS-CoV Urbani [3] | Binding of serum London to linear peptides of protein E of SARS-CoV Urbani [3] | Binding of serum London to looped/cyclic peptides of protein E of SARS-CoV Urbani [3] | other results
FVSEETGTLIVNSVL | 0.3 | 0.1 | 0.8 | 0.7 | 1.1 | 0.7 | 0.8 | 0.6 | 0.6 | 0.6 | 0.5 | 0.4 | 0.4 | 0.5 | 0.4 | 0.6 | 0.5 | 0.8 | 0.8 | 0.5 | Binding of serum SARS-green to linear peptides of protein E of SARS-CoV Urbani [3]: 0.6; Binding of serum SARS-green to looped/cyclic peptides of protein E of SARS-CoV Urbani [3]: 0.6; Binding of serum SARS-yellow to linear peptides of protein E of SARS-CoV Urbani [3]: 0.4; Binding of serum SARS-yellow to looped/cyclic peptides of protein E of SARS-CoV Urbani [3]: 0.8
ILTALRLCAYCCNIV | 0.6 | 0.6 | 0.8 | 0.8 | 0.4 | 0.8 | 0.8 | 0.9 | 0.7 | 0.6 | 0.4 | 1.0 | 0.8 | 0.7 | 0.7 | 0.7 | 0.8 | 0.8 | 0.5 | 0.6 | Binding of serum SARS-green to linear peptides of protein E of SARS-CoV Urbani [3]: 0.5; Binding of serum SARS-green to looped/cyclic peptides of protein E of SARS-CoV Urbani [3]: 0.6; Binding of serum SARS-yellow to linear peptides of protein E of SARS-CoV Urbani [3]: 0.2; Binding of serum SARS-yellow to looped/cyclic peptides of protein E of SARS-CoV Urbani [3]: 0.6
IVNSVLLFLAFVVFL | 0.5 | 0.5 | 0.5 | 0.6 | 0.4 | 0.7 | 0.8 | 0.6 | 0.6 | 0.4 | 0.4 | 0.5 | 0.7 | 0.3 | 0.7 | 0.6 | 0.6 | 0.6 | 0.4 | 0.3 | Binding of serum SARS-green to linear peptides of protein E of SARS-CoV Urbani [3]: 0.3; Binding of serum SARS-green to looped/cyclic peptides of protein E of SARS-CoV Urbani [3]: 0.2; Binding of serum SARS-yellow to linear peptides of protein E of SARS-CoV Urbani [3]: 0.2; Binding of serum SARS-yellow to looped/cyclic peptides of protein E of SARS-CoV Urbani [3]: 0.7
LAFVVFLLVTLAILT | 0.5 | 0.2 | 0.8 | 0.6 | 0.5 | 0.6 | 0.8 | 0.5 | 0.5 | 0.5 | 0.5 | 0.5 | 0.7 | 0.5 | 0.7 | 0.6 | 0.7 | 0.6 | 0.6 | 0.5 | Binding of serum SARS-green to linear peptides of protein E of SARS-CoV Urbani [3]: 0.3; Binding of serum SARS-green to looped/cyclic peptides of protein E of SARS-CoV Urbani [3]: 0.5; Binding of serum SARS-yellow to linear peptides of protein E of SARS-CoV Urbani [3]: 0.1; Binding of serum SARS-yellow to looped/cyclic peptides of protein E of SARS-CoV Urbani [3]: 0.4
LAILTALRLCAYCCN | 0.6 | 0.6 | 0.7 | 0.7 | 0.6 | 0.8 | 0.8 | 0.8 | 0.7 | 0.4 | 0.5 | 0.6 | 0.5 | 0.5 | 0.8 | 0.6 | 0.8 | 0.7 | 0.5 | 0.4 | Binding of serum SARS-green to linear peptides of protein E of SARS-CoV Urbani [3]: 0.5; Binding of serum SARS-green to looped/cyclic peptides of protein E of SARS-CoV Urbani [3]: 0.5; Binding of serum SARS-yellow to linear peptides of protein E of SARS-CoV Urbani [3]: 0.2; Binding of serum SARS-yellow to looped/cyclic peptides of protein E of SARS-CoV Urbani [3]: 0.8
